“And” between values parts separate entries of the source, which are not always exact repeats. Identical values can stand only once. Inconclusive results and toxic doses are left out.

In the assay the test system is CD2F1 mice, L1210 leukemia ip, survival T/C. Nature of the assay: NCI In Vivo Anticancer Drug Screen. Data for tumor model L1210 Leukemia (intraperitoneal) in CD2F1 (CDF1) mice. The conditions noted are these: higher = longer survival. Summed up: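 Ratio T/C, where T is the treated-group value and C the vehicle-dosed control value, from mice implanted with a transplantable tumor.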

Where [1] appears, read: endpoint: mean survival time, dose: 100.0 mg/kg/injection, schedule: Q01DX001 (ip), vehicle: saline with Tween-80.
Where [2] appears, read: endpoint: mean survival time, dose: 200.0 mg/kg/injection, schedule: Q01DX001 (ip), vehicle: saline with Tween-80.
The mark [3] stands for this setting: endpoint: mean survival time, dose: 400.0 mg/kg/injection, schedule: Q01DX001 (ip), vehicle: saline with Tween-80.
[4] abbreviates: endpoint: mean survival time, dose: 12.5 mg/kg/injection, schedule: Q01DX009 (ip), vehicle: saline with Tween-80.
The mark [5] stands for this setting: endpoint: mean survival time, dose: 25.0 mg/kg/injection, schedule: Q01DX009 (ip), vehicle: saline with Tween-80.
Setting [6] is: endpoint: mean survival time, dose: 100.0 mg/kg/injection, schedule: Q04DX003 (ip), vehicle: saline with Tween-80.
The mark [7] stands for this setting: endpoint: mean survival time, dose: 200.0 mg/kg/injection, schedule: Q04DX003 (ip), vehicle: saline with Tween-80.
[8] abbreviates: endpoint: mean survival time, dose: 400.0 mg/kg/injection, schedule: Q04DX003 (ip), vehicle: saline with Tween-80.
Setting [9] is: endpoint: mean survival time, dose: 50.0 mg/kg/injection, schedule: Q01DX009 (ip), vehicle: saline with Tween-80.
The mark [10] stands for this setting: endpoint: mean survival time, dose: 200.0 mg/kg/injection, schedule: Q01DX009 (ip), vehicle: saline with Tween-80.
Setting [11] is: endpoint: mean survival time, dose: 100.0 mg/kg/injection, schedule: Q01DX009 (ip), vehicle: saline with Tween-80.

Turning to `COc1ccc(CC(N)C(=O)NC2C(CO)OC(n3cnc4c(N)ncnc43)C2O)cc1` (stereo unspecified), the T/C was 100 % of control (endpoint: mean survival time, dose: 75.0 mg/kg/injection, schedule: Q01DX001 (ip), vehicle: saline); 95 % of control (endpoint: mean survival time, dose: 150.0 mg/kg/injection, schedule: Q01DX001 (ip), vehicle: saline); 100 % of control (endpoint: mean survival time, dose: 300.0 mg/kg/injection, schedule: Q01DX001 (ip), vehicle: saline).

Consider `CC(CCC(=O)O)C1CCC2C3CCC4CC(O)CCC4(C)C3CC(O)C12C` (stereo unspecified), for which the T/C under setting [1] is 104 % of control and 94 % of control; the T/C under setting [2] is 101 % of control; the T/C under setting [3] is 92 % of control.

For the compound `Nc1ncnc2c1ncn2[C@@H](C=O)O[C@@H](C=O)CO`, the T/C was 164 % of control (endpoint: mean survival time, dose: 3.12 mg/kg/injection, schedule: Q01DX009 (ip), vehicle: saline with Tween-80); 152 % of control (endpoint: mean survival time, dose: 3.13 mg/kg/injection, schedule: Q01DX005 (ip), vehicle: saline with Tween-80); 180 % of control (endpoint: mean survival time, dose: 6.25 mg/kg/injection, schedule: Q01DX005 (ip), vehicle: saline with Tween-80); 176 % of control (endpoint: mean survival time, dose: 6.25 mg/kg/injection, schedule: Q01DX009 (ip), vehicle: saline with Tween-80); 165 % of control (endpoint: mean survival time, dose: 12.5 mg/kg/injection, schedule: Q01DX005 (ip), vehicle: other); 153 % of control (endpoint: mean survival time, dose: 12.5 mg/kg/injection, schedule: Q01DX005 (ip), vehicle: saline with Tween-80). The T/C is 185 % of control under setting [4]; 172 % of control (endpoint: mean survival time, dose: 25.0 mg/kg/injection, schedule: Q01DX005 (ip), vehicle: other); 89 % of control under setting [5].

For `CCOc1ccc(C(=O)OC(CN(CC)CC)c2ccccc2)cc1` (stereo unspecified), the T/C (endpoint: mean survival time, dose: 25.0 mg/kg/injection, schedule: Q04DX003 (ip), vehicle: saline) was 102 % of control; the T/C (endpoint: mean survival time, dose: 50.0 mg/kg/injection, schedule: Q04DX003 (ip), vehicle: saline) was 102 % of control; the T/C (endpoint: mean survival time, dose: 100.0 mg/kg/injection, schedule: Q04DX003 (ip), vehicle: saline) was 89 % of control.

For `CC(=O)C(C(C)=O)C(c1ccccn1)C(C(C)=O)C(C)=O`, the T/C reads like this: under setting [6], 106 % of control; under setting [7], 98 % of control; under setting [8], 93 % of control.

For the compound `CC12CCC(C1)C(C)(C)C2(O)c1ccccc1` (stereo unspecified), the T/C under setting [6] is 92 % of control.

Regarding `COC1CCC2CC1[N+](C)(C)C2` (stereo unspecified), the T/C was 96 % of control (endpoint: mean survival time, dose: 12.5 mg/kg/injection, schedule: Q04DX002 (ip), vehicle: saline); 101 % of control (endpoint: mean survival time, dose: 25.0 mg/kg/injection, schedule: Q04DX002 (ip), vehicle: saline); 101 % of control (endpoint: mean survival time, dose: 50.0 mg/kg/injection, schedule: Q04DX002 (ip), vehicle: saline).

Consider `N=C(N)SCc1ccccc1`, for which the T/C (endpoint: mean survival time, dose: 6.25 mg/kg/injection, schedule: Q04DX003 (ip), vehicle: saline with Tween-80) is 114 % of control; the T/C under setting [4] was 94 % of control; the T/C (endpoint: mean survival time, dose: 12.5 mg/kg/injection, schedule: Q04DX003 (ip), vehicle: saline with Tween-80) is 100 % of control; the T/C (endpoint: mean survival time, dose: 25.0 mg/kg/injection, schedule: Q01DX001 (ip), vehicle: saline) was 93 % of control; the T/C under setting [5] was 96 % of control; the T/C (endpoint: mean survival time, dose: 25.0 mg/kg/injection, schedule: Q04DX003 (ip), vehicle: saline with Tween-80) is 112 % of control. Also, the T/C (endpoint: mean survival time, dose: 50.0 mg/kg/injection, schedule: Q01DX001 (ip), vehicle: saline) was 100 % of control; the T/C under setting [9] is 93 % of control and 97 % of control; the T/C (endpoint: mean survival time, dose: 50.0 mg/kg/injection, schedule: Q04DX003 (ip), vehicle: saline with Tween-80) is 94 % of control and 97 % of control; the T/C (endpoint: mean survival time, dose: 100.0 mg/kg/injection, schedule: Q01DX001 (ip), vehicle: saline) is 96 % of control; the T/C under setting [6] is 100 % of control; the T/C under setting [10] is 86 % of control. Moreover, the T/C under setting [7] is 95 % of control.

Consider `CO[Si](c1ccccc1)(c1ccccc1)c1cccc2ccccc12`, for which the T/C runs as follows: (endpoint: mean survival time, dose: 75.0 mg/kg/injection, schedule: Q04DX003 (ip), vehicle: saline) 89 % of control; (endpoint: mean survival time, dose: 150.0 mg/kg/injection, schedule: Q04DX003 (ip), vehicle: saline) 91 % of control; (endpoint: mean survival time, dose: 300.0 mg/kg/injection, schedule: Q04DX003 (ip), vehicle: saline) 95 % of control.

In the case of `O=C(O)O`, the T/C was 105 % of control (endpoint: mean survival time, dose: 200.0 mg/kg/injection, schedule: Q01DX001 (ip), vehicle: saline); 107 % of control under setting [10]; 100 % of control (endpoint: mean survival time, dose: 400.0 mg/kg/injection, schedule: Q01DX001 (ip), vehicle: saline).

Turning to `C[N+](C)(C)Cc1c[nH]c2ccccc12`, the T/C is 94 % of control under setting [1], 91 % of control under setting [2] and 96 % of control under setting [3].

For `CN=C(N)N/N=C/c1ccccc1`, the T/C is 95 % of control (endpoint: mean survival time, dose: 7.5 mg/kg/injection, schedule: Q04DX003 (ip), vehicle: saline); 97 % of control (endpoint: mean survival time, dose: 15.0 mg/kg/injection, schedule: Q04DX003 (ip), vehicle: saline); 112 % of control (endpoint: mean survival time, dose: 30.0 mg/kg/injection, schedule: Q04DX003 (ip), vehicle: saline).

In the case of `c1ccc2c3c(ccc2c1)CN1CCCCC1C3` (stereo unspecified), the T/C under setting [9] was 102 % of control, the T/C under setting [11] was 100 % of control and the T/C under setting [10] is 104 % of control.

Turning to `Cc1c2ccccc2c(CN2CC(O)CC2C(=O)O)c2ccc3ccccc3c12` (stereo unspecified), the T/C by setting is: under setting [6], 102 % of control; under setting [7], 100 % of control; under setting [8], 87 % of control.

Consider `c1ccc(C(=NCCN=C(c2ccccc2)c2ccccc2)c2ccccc2)cc1`, for which the T/C was 97 % of control under setting [11]; 97 % of control under setting [6]; 92 % of control under setting [10]; 97 % of control under setting [7]; 95 % of control (endpoint: mean survival time, dose: 400.0 mg/kg/injection, schedule: Q01DX009 (ip), vehicle: saline with Tween-80); 97 % of control under setting [8].

As to `Cc1cc(NCCCCCCCCNc2cc(C)nc3cc(N(C)C)ccc23)c2ccc(N(C)C)cc2n1`, the T/C is 108 % of control (endpoint: median survival time, dose: 1.57 mg/kg/injection, schedule: Q01DX009 (ip), vehicle: distilled water + Tween-80 + alcohol); 118 % of control (endpoint: median survival time, dose: 3.12 mg/kg/injection, schedule: Q01DX009 (ip), vehicle: distilled water + Tween-80 + alcohol); 115 % of control (endpoint: median survival time, dose: 3.12 mg/kg/injection, schedule: Q01DX009 (ip), vehicle: distilled water + Tween-80); 123 % of control (endpoint: median survival time, dose: 6.25 mg/kg/injection, schedule: Q01DX009 (ip), vehicle: distilled water + Tween-80); 123 % of control (endpoint: median survival time, dose: 12.5 mg/kg/injection, schedule: Q01DX009 (ip), vehicle: distilled water + Tween-80).

In the case of `CC(=O)c1ccc(Br)c([N+](=O)[O-])c1`, the T/C by setting is: (endpoint: mean survival time, dose: 100.0 mg/kg/injection, schedule: Q01DX009 (ip), vehicle: Klucel (hydroxypropylcellulose) (HPC)) 102 % of control; (endpoint: mean survival time, dose: 100.0 mg/kg/injection, schedule: Q04DX003 (ip), vehicle: Klucel (hydroxypropylcellulose) (HPC)) 96 % of control; (endpoint: mean survival time, dose: 200.0 mg/kg/injection, schedule: Q01DX009 (ip), vehicle: Klucel (hydroxypropylcellulose) (HPC)) 98 % of control; (endpoint: mean survival time, dose: 200.0 mg/kg/injection, schedule: Q04DX003 (ip), vehicle: Klucel (hydroxypropylcellulose) (HPC)) 100 % of control; (endpoint: mean survival time, dose: 400.0 mg/kg/injection, schedule: Q01DX009 (ip), vehicle: Klucel (hydroxypropylcellulose) (HPC)) 102 % of control; (endpoint: mean survival time, dose: 400.0 mg/kg/injection, schedule: Q04DX003 (ip), vehicle: Klucel (hydroxypropylcellulose) (HPC)) 105 % of control.

Consider `CN(C)c1nc(N)nc(-c2ccncc2)n1`, for which the T/C by setting is: (endpoint: mean survival time, dose: 12.0 mg/kg/injection, schedule: Q04DX002 (ip), vehicle: saline) 100 % of control; (endpoint: mean survival time, dose: 24.0 mg/kg/injection, schedule: Q04DX002 (ip), vehicle: saline) 96 % of control; (endpoint: mean survival time, dose: 48.0 mg/kg/injection, schedule: Q04DX002 (ip), vehicle: saline) 92 % of control.

Values taken from PubChem BioAssay AID256 (DTP/NCI, 2004).
